Reference: patent US6803457B1, “Compounds for the treatment of ischemia” (Pfizer, Inc., priority 1999, dated 2004)

melting point [°C] | SMILES
212 to 218 | CNC(=O)[C@H]1O[C@@H](n2cnc3c(NCc4cc(Cl)ccc4OCC4OC(O)C(O)C(O)C4O)ncnc32)[C@H](O)[C@@H]1N (stereo partly drawn) [Example 2, (2S,3S,4R,5R)3-Amino-5-{6-[5-chloro-2-(3,4,5,6-tetrahydroxytetrahydropyran-2-ylmethoxy)benzylamino]purin-9-yl}-4-hydroxytetrahydrofuran-2-carboxylic acid methylamide]
99 to 108 | CNC(=O)[C@H]1O[C@@H](n2cnc3c(NCc4cc(Cl)ccc4OCCN4CCOCC4)ncnc32)[C@H](O)[C@@H]1N [Example 4, (2S,3S,4R,5R)3-Amino-5-{6-[5-chloro-2-(2-morpholin-4-ylethoxy)benzylamino]-purin-9-yl}-4-hydroxytetrahydrofuran-2-carboxylic acid methylamide]
107 to 117 | CNC(=O)[C@H]1O[C@@H](n2cnc3c(NCc4cc(Cl)ccc4OCC4CCC4)ncnc32)[C@H](O)[C@@H]1N [Example 5, (2S,3S,4R,5R)3-Amino-5-[6-(5-chloro-2-cyclobutylmethoxybenzylamino)-purin-9-yl]-4-hydroxytetrahydrofuran-2-carboxylic acid methylamide]
102 to 108 | CNC(=O)[C@H]1O[C@@H](n2cnc3c(NCc4cc(Cl)ccc4OCc4cccc(OC)c4)ncnc32)[C@H](O)[C@@H]1N [Example 6, (2S,3S,4R,5R)3-Amino-5-{6-[5-chloro-2-(3-methoxy-benzyloxy)-benzylamino]-purin-9-yl}-4-hydroxytetrahydrofuran-2-carboxylic acid methylamide]
112 to 115 | CNC(=O)[C@H]1O[C@@H](n2cnc3c(NCc4cc(Cl)ccc4OCc4cc(OC)ccc4OC)ncnc32)[C@H](O)[C@@H]1N [Example 7, (2S,3S,4R,5R)3-Amino-5-{6-[5-chloro-2-(2,5-dimethoxy-benzyloxy)-benzylamino]-purin-9-yl}-4-hydroxytetrahydrofuran-2-carboxylic acid methylamide]
85 to 90 | CNC(=O)[C@H]1O[C@@H](n2cnc3c(NCc4cc(Cl)ccc4OCc4cccc(Cl)c4)ncnc32)[C@H](O)[C@@H]1N [Example 8, (2S,3S,4R,5R)3-Amino-5-{6-[5-chloro-2-(3-chloro-benzyloxy)-benzylamino]-purin-9-yl}-4-hydroxytetrahydrofuran-2-carboxylic acid methylamide]
88 to 92 | CNC(=O)[C@H]1O[C@@H](n2cnc3c(NCc4cc(Cl)ccc4OCc4ccc(Cl)cc4)ncnc32)[C@H](O)[C@@H]1N [Example 9, (2S,3S,4R,5R)3Amino-5-{6-[5-chloro-2-(4-chloro-benzyloxy)-benzylamino]-purin-9-yl}-4-hydroxytetrahydrofuran-2-carboxylic acid methylamide]
88 to 92 | CNC(=O)[C@H]1O[C@@H](n2cnc3c(NCc4cc(Cl)ccc4OCc4ccccc4Cl)ncnc32)[C@H](O)[C@@H]1N [Example 10, (2S,3S,4R,5R)3-Amino-5-{6-[5-chloro-2-(2-chloro-benzyloxy)-benzylamino]-purin-9-yl}-4-hydroxytetrahydrofuran-2-carboxylic acid methylamide]
114 to 118 | CNC(=O)[C@H]1O[C@@H](n2cnc3c(NCc4cc(Cl)ccc4OCC4CCOC4)ncnc32)[C@H](O)[C@@H]1N (stereo partly drawn) [Example 11, (2S,3S,4R,5R)3-Amino-5-{6-[5-chloro-2-(tetrahydrofuran-3-ylmethoxy)-benzylamino]-purin-9yl}-4-hydroxytetrahydrofuran-2-carboxylic acid methylamide]
82 to 86 | CNC(=O)[C@H]1O[C@@H](n2cnc3c(NCc4cc(Cl)ccc4OCc4ccc(C)cc4)ncnc32)[C@H](O)[C@@H]1N [Example 12, (2S,3S,4R,5R)3-Amino-5-{6-[5-chloro-2-(4-methyl-benzyloxy)-benzylamino]-purin-9-yl}-4-hydroxytetrahydrofuran-2-carboxylic acid methylamide]
76 to 80 | CNC(=O)[C@H]1O[C@@H](n2cnc3c(NCc4cc(Cl)ccc4OCc4ccccc4C)ncnc32)[C@H](O)[C@@H]1N [Example 13, (2S,3S,4R,5R)3-Amino-5-{6-[5-chloro-2-(2-methyl-benzyloxy)-benzylamino]-purin-9-yl}-4-hydroxytetrahydrofuran-2-carboxylic acid methylamide]
92 to 97 | CNC(=O)[C@H]1O[C@@H](n2cnc3c(NCc4cc(Cl)ccc4OCc4cccc(C)c4)ncnc32)[C@H](O)[C@@H]1N [Example 14, (2S,3S,4R,5R)3-Amino-5-{6-[5-chloro-2-(3-methyl-benzyloxy)-benzylamino]-purin-9-yl}-4-hydroxytetrahydrofuran-2-carboxylic acid methylamide]
102 to 123 | CNC(=O)[C@H]1O[C@@H](n2cnc3c(NCc4cc(Cl)ccc4OCc4ccccc4OC)ncnc32)[C@H](O)[C@@H]1N [Example 15, (2S,3S,4R,5R)3-Amino-5-{6-[5-chloro-2-(2-methoxybenzyloxy)benzylamino]-purin-9-yl}-4-hydroxytetrahydrofuran-2-carboxylic acid methylamide]
93 to 97 | CNC(=O)[C@H]1O[C@@H](n2cnc3c(NCc4cc(Cl)ccc4OCc4ccoc4)ncnc32)[C@H](O)[C@@H]1N [Example 16, (2S,3S,4R,5R)3-Amino-5-{6-[5-chloro-2-(furan-3-ylmethoxy)benzylamino]-purin-9-yl}-4-hydroxytetrahydrofuran-2carboxylic acid methylamide]
110.6 to 116.2 | CNC(=O)[C@H]1O[C@@H](n2cnc3c(NCc4cc(Cl)ccc4OCC4CCCC4)ncnc32)[C@H](O)[C@@H]1N [Example 18, (2S,3S,4R,5R)3-Amino-5-[6-(5-chloro-2-cyclopentylmethoxy-benzylamino)-purin-9-yl]-4-hydroxytetrahydrofuran-2-carboxylic acid methylamide]
132 to 161 | CNC(=O)[C@H]1O[C@@H](n2cnc3c(NCc4cc(Cl)ccc4OCC4CCOC4)ncnc32)[C@H](O)[C@@H]1N (stereo partly drawn) [Example 20, (2S,3S,4R,5R)3-Amino-5-{6-[5-chloro-2-(tetrahydro-furan-3-ylmethoxy)-benzylamino]-purin-9-yl}-4-hydroxy-tetrahydro-furan-2-carboxylic acid methylamide]
187 to 192 | CNC(=O)[C@H]1O[C@@H](n2cnc3c(NCc4cc(Cl)ccc4OCc4ccco4)ncnc32)[C@H](O)[C@@H]1N [Example 22, (2S,3S,4R,5R)3-Amino-5-{6-(5-chloro-2-(furan-2-ylmethoxy)benzylamino]purin-9-yl}-4-hydroxytetrahydrofuran-2-carboxylic acid methylamide]
85 to 88 | CNC(=O)[C@H]1O[C@@H](n2cnc3c(NCc4cc(Cl)ccc4OCc4cc(C)oc4C)ncnc32)[C@H](O)[C@@H]1N [Example 24, (2S,3S,4R,5R)3-Amino-5-{6-[5-chloro-2-(2,5-dimethylfuran-3-ylmethoxy)benzylamino]purin-9-yl}-4-hydroxytetrahydrofuran-2-carboxylic acid methylamide]
200 to 218 | CNC(=O)[C@H]1O[C@@H](n2cnc3c(NCc4cc(Cl)ccc4OCc4cccnc4)ncnc32)[C@H](O)[C@@H]1N [Example 25, (2S,3S,4R,5R)3-Amino-5-{6-[5-chloro-2-(pyridin-3-ylmethoxy)benzylamino]purin-9-yl}-4-hydroxytetrahydrofuran-2-carboxylic acid methylamide]
78 to 81 | CNC(=O)[C@H]1O[C@@H](n2cnc3c(NCc4cc(Cl)ccc4OCc4ccc(CN(C)C)o4)ncnc32)[C@H](O)[C@@H]1N [Example 26, (2S,3S,4R,5R)3-Amino-5-{6-[5-chloro-2-(5-dimethylaminomethylfuran-2-ylmethoxy)benzylamino]purin-9-yl}-4-hydroxytetrahydrofuran-2-carboxylic acid methylamide]
208 to 209 | CNC(=O)[C@H]1O[C@@H](n2cnc3c(NCc4cc(Cl)ccc4OCc4nccs4)ncnc32)[C@H](O)[C@@H]1N [Example 27, (2S,3S,4R,5R)3-Amino-5-{6-[5-chloro-2-(thiazol-2-ylmethoxy)-benzylamino]-purin-9-yl}-4-hydroxy-tetrahydro-furan-2-carboxylic acid methylamide]
127 to 129 | CNC(=O)[C@H]1O[C@@H](n2cnc3c(NCc4cc(Cl)ccc4OCc4nc5ccccc5s4)ncnc32)[C@H](O)[C@@H]1N [Example 28, (2S,3S,4R,5R)3-Amino-5-{6-[2-(benzothiazol-2-ylmethoxy)-5-chlorobenzylamino]purin-9-yl}-4-hydroxytetrahydrofuran-2-carboxylic acid methylamide]
127 to 130 | CNC(=O)[C@H]1O[C@@H](n2cnc3c(NCc4cc(Cl)ccc4OCc4cc5ccccc5o4)ncnc32)[C@H](O)[C@@H]1N [Example 29, (2S,3S,4R,5R)3-Amino-5-{6-[2-(benzofuran-2-ylmethoxy)-5-chlorobenzylamino]purin-9-yl}-4-hydroxytetrahydrofuran-2-carboxylic acid methylamide]
180 to 183 | CNC(=O)[C@H]1O[C@@H](n2cnc3c(NCc4cc(Cl)ccc4OCc4ccns4)ncnc32)[C@H](O)[C@@H]1N [Example 30, (2S,3S,4R,5R)3-Amino-5-{6-[5-chloro-2-(isothiazol-5-ylmethoxy)benzylamino]purin-9-yl}-4-hydroxytetrahydrofuran-2-carboxylic acid methylamide]
135 to 141 | CNC(=O)[C@H]1O[C@@H](n2cnc3c(NCc4cc(Cl)ccc4OCc4cccs4)ncnc32)[C@H](O)[C@@H]1N [Example 31, (2S,3S,4R,5R)3-Amino-5-{6-[5-chloro-2-(thiophen-2-ylmethoxy)benzylamino]purin-9-yl}-4-hydroxytetrahydrofuran-2-carboxylic acid methylamide]
130 to 134 | CNC(=O)[C@H]1O[C@@H](n2cnc3c(NCc4cc(Cl)ccc4OCc4ccc5ccccc5n4)ncnc32)[C@H](O)[C@@H]1N [Example 32, (2S,3S,4R,5R)3-Amino-5-{6-[5-chloro-2-(quinolin-2-ylmethoxy)benzylamino]purin-9-yl}-4-hydroxytetrahydrofuran-2-carboxylic acid methylamide]
